This passage reports EC50 results from patent publication US10294234B2, “HIV inhibitor compounds” (priority 2017, dated 2019).

Where two headings read alike, the source gives them in different places.

This test deals with HIV-1 (IIIB) in MT-4 cells. Nature of the test: MT-4 HIV assay. The format is cell-based. The note with it: HIV-1 (IIIB), MT-4 cells, 5 days, Cell Titer Glo, read-out: EC50. As for the experimental part: Compounds were tested in a high-throughput 384-well assay format for their ability to inhibit the replication of HIV-1 (IIIB) in MT-4 cells. Compounds were serially diluted (1:3) in DMSO on 384-well polypropylene plates and further diluted 200-fold into complete RPMI media (10% FBS, 1% P/S) using the Biotek Micro Flow and Agilent ECHO acoustic dispenser. Each plate contained up to 8 test compounds, with negative (No Drug Control) and 5 uM AZT positive controls. MT-4 cells were pre-infected with 10 uL of either RPMI (mock-infected) or a fresh 1:250 dilution of an HIV-1 (IIIB) concentrated virus stock. Infected and uninfected MT-4 cells were further diluted in complete RPMI media and added to each plate using a Micro Flow dispenser. After 5 days incubation in a humidified and temperature controlled incubator (37° C.), Cell Titer Glo (Promega) was added to the assay plates to quantify the amount of luciferase.

[1] abbreviates: Human immunodeficiency virus 1, MT4, 120 h.

With `COC(=O)N[C@H](C(=O)N[C@@H](Cc1ccc(C#Cc2ccc(N3CC4CCC(C3)N4C3COC3)nc2)cc1)[C@@H](O)CN(Cc1c(Cl)cc(-c2ccccn2)cc1Cl)NC(=O)[C@@H](NC(=O)OC)C(C)(C)C(F)(F)F)C(C)(C)C(F)(F)F` [Example 149, Methyl ((5S,8S,9S,14S)-11-(2,6-dichloro-4-(pyridin-2-yl)benzyl)-16,16,16-trifluoro-9-hydroxy-15,15-dimethyl-8-(4-((6-(8-(oxetan-3-yl)-3,8-diazabicyclo[3.2.1]octan-3-yl)pyridin-3-yl)ethynyl)benzyl)-3,6,13-trioxo-5-(1,1,1-trifluoro-2-methylpropan-2-yl)-2-oxa-4,7,11,12-tetraazahexadecan-14-yl)carbamate], the EC50 under setting [1] was determined as 8.3 nM. Still for that read-out and setting: for `COC(=O)N[C@H](C(=O)N[C@@H](Cc1ccc(C#Cc2ccc(N3C[C@H]4C[C@@H]3CN4C3COC3)nc2)cc1)[C@@H](O)CN(Cc1c(F)cc(-c2ccc(F)cn2)cc1F)NC(=O)[C@@H](NC(=O)OC)C(C)(C)C(F)(F)F)C(C)(C)C(F)(F)F` [Example 135, Methyl ((5S,10S,11S,14S)-8-(2,6-difluoro-4-(5-fluoropyridin-2-yl)benzyl)-16,16,16-trifluoro-10-hydroxy-15,15-dimethyl-11-(4-((6-((1R,4R)-5-(oxetan-3-yl)-2,5 diazabicyclo[2.2.1]heptan-2-yl)pyridin-3-yl)ethynyl)benzyl)-3,6,13-trioxo-5-(1,1,1-trifluoro-2-methylpropan-2-yl)-2-oxa-4,7,8,12-tetraazahexadecan-14-yl)carbamate] the value was 3.64 nM; for `COC(=O)N[C@H](C(=O)NN(Cc1ccc(-c2cnn(C(F)F)c2)cc1)C[C@H](O)[C@H](Cc1ccc(C#Cc2ccc(N3CC4CCC(C3)N4C3COC3)nc2)cc1)NC(=O)[C@@H](NC(=O)OC)C(C)(C)C(F)(F)F)C(C)(C)C` [Example 243, methyl ((5S,8S,9S,14S)-11-(4-(1-(difluoromethyl)-1H-pyrazol-4-yl)benzyl)-9-hydroxy-15,15-dimethyl-8-(4-((6-(8-(oxetan-3-yl)-3,8-diazabicyclo[3.2.1]octan-3-yl)pyridin-3-yl)ethynyl)benzyl)-3,6,13-trioxo-5-(1,1,1-trifluoro-2-methylpropan-2-yl)-2-oxa-4,7,11,12-tetraazahexadecan-14-yl)carbamat], 5.32 nM; for `COC(=O)N[C@H](C(=O)N[C@@H](Cc1ccc(-c2ccc(N3C[C@H]4C[C@@H]3CN4C3COC3)nc2)cc1)[C@@H](O)CN(Cc1c(F)cc(-c2ccn(CC(F)F)n2)cc1F)NC(=O)[C@@H](NC(=O)OC)C(C)(C)C(F)(F)F)C(C)(C)C(F)(F)F` [Example 188, methyl ((5S,8S,9S,14S)-11-(4-(1-(2,2-difluoroethyl)-1H-pyrazol-3-yl)-2,6-difluorobenzyl)-16,16,16-trifluoro-9-hydroxy-15,15-dimethyl-8-(4-(6-((1R,4R)-5-(oxetan-3-yl)-2,5-diazabicyclo[2.2.1]heptan-2-yl)pyridin-3-yl)benzyl)-3,6,13-trioxo-5-(1,1,1-trifluoro-2-methylpropan-2-yl)-2-oxa-4,7,11,12-tetraazahexadecan-14-yl)carbamate], 9 nM.

Consider `COC(=O)N[C@H](C(=O)N[C@@H](Cc1ccc(C#Cc2ccc3nc(N4CC5CCC(C4)N5C4COC4)ccc3n2)cc1)[C@@H](O)CN(Cc1c(F)cc(-c2ccn(C(F)F)n2)cc1F)NC(=O)[C@@H](NC(=O)OC)C(C)(C)C(F)(F)F)C(C)(C)C(F)(F)F` [Example 47, Methyl ((5S,8S,9S,14S)-11-(4-(1-(difluoromethyl)-1H-pyrazol-3-yl)-2,6-difluorobenzyl)-16,16,16-trifluoro-9-hydroxy-15,15-dimethyl-8-(4-((6-(8-(oxetan-3-yl)-3,8-diazabicyclo[3.2.1]octan-3-yl)-1,5-naphthyridin-2-yl)ethynyl)benzyl)-3,6,13-trioxo-5-(1,1,1-trifluoro-2-methylpropan-2-yl)-2-oxa-4,7,11,12-tetraazahexadecan-14-yl)carbamate], for which the EC50 under setting [1] was found to be 7.18 nM. Turning to `CC(=O)N[C@H](C(=O)N[C@@H](Cc1ccc(-c2cnn(C(F)F)c2)cc1)[C@@H](O)CN(Cc1c(F)cc(-c2cnn(C(F)F)c2)cc1F)NC(=O)[C@@H](NC(C)=O)C(C)(C)C(F)(F)F)C(C)(C)C(F)(F)F` [Example 217, (S)-2-acetamido-N-((2S,3S)-4-(2-((S)-2-acetamido-4,4,4-trifluoro-3,3-dimethylbutanoyl)-1-(4-(1-(difluoromethyl)-1H-pyrazol-4-yl)-2,6-difluorobenzyl)hydrazinyl)-1-(4-(1-(difluoromethyl)-1H-pyrazol-4-yl)phenyl)-3-hydroxybutan-2-yl)-4,4,4-trifluoro-3,3-dimethylbutanamide], the EC50 under setting [1] was 113 nM. As for `COC(=O)N[C@H](C(=O)N[C@@H](Cc1ccc(-c2ccc(N3CC4CC(C3)N4C3COC3)nc2)cc1)[C@@H](O)CN(Cc1c(F)cc(-c2ccn(C(F)F)n2)cc1F)NC(=O)[C@@H](NC(=O)OC)C(C)(C)C(F)(F)F)C(C)(C)C(F)(F)F` [Example 202, Methyl ((5S,8S,9S,14S)-11-(4-(1-(difluoromethyl)-1H-pyrazol-3-yl)-2,6-difluorobenzyl)-16,16,16-trifluoro-9-hydroxy-15,15-dimethyl-8-(4-(6-(6-(oxetan-3-yl)-3,6-diazabicyclo[3.1.1]heptan-3-yl)pyridin-3-yl)benzyl)-3,6,13-trioxo-5-(1,1,1-trifluoro-2-methylpropan-2-yl)-2-oxa-4,7,11,12-tetraazahexadecan-14-yl)carbamate], the EC50 under setting [1] is 9.67 nM. On to `COC(=O)N[C@H](C(=O)N[C@@H](Cc1ccc(C#Cc2ccc(N3CC4CC(C3)N4C3COC3)nc2)cc1)[C@@H](O)CN(Cc1c(F)cc(-c2cc(F)ccn2)cc1F)NC(=O)[C@@H](NC(=O)OC)C(C)(C)C(F)(F)F)C(C)(C)C(F)(F)F` [Example 140, Methyl ((5S,10S,11S,14S)-8-(2,6-difluoro-4-(4-fluoropyridin-2-yl)benzyl)-16,16,16-trifluoro-10-hydroxy-15,15-dimethyl-11-(4-((6-(6-(oxetan-3-yl)-3,6-diazabicyclo [3.1.1]heptan-3-yl)pyridin-3-yl)ethynyl)benzyl)-3,6,13-trioxo-5-(1,1,1-trifluoro-2-methylpropan-2-yl)-2-oxa-4,7,8,12-tetraazahexadecan-14-yl)carbamate], for which, under setting [1], the EC50 came out at 5.09 nM. Take “methyl ((5S,8S,9S,14S)-11-(2-chloro-6-fluoro-(pyridin-2-yl)benzyl)-16-fluoro-5-(1-fluoro-2-methylpropan-2-yl)-9-hydroxy-15,15-dimethyl-3,6,13-trioxo-8-(4-((6-(8-(2,2,2-trifluoroethyl)-3,8-diazabicyclo[3.2.1]octan-3-yl)pyridin-3-yl)ethynyl)benzyl)-2-oxa-4,7,11,12-tetraazahexadecan-14-yl)carbamate [Example 244]”: the EC50 turned out to be 19.5 nM.

Regarding `COC(=O)N[C@H](C(=O)NN(Cc1c(F)cc(-c2ccn(CC(F)F)n2)cc1F)C[C@H](O)[C@H](Cc1ccc(-c2cnc(N3CC4CCC(C3)N4C3COC3)nc2)cc1)NC(=O)[C@@H](NC(=O)OC)C(C)(C)C(F)(F)F)C(C)(C)C` [Example 193, Methyl ((5S,8S,9S,14S)-11-(4-(1-(2,2-difluoroethyl)-1H-pyrazol-3-yl)-2,6-difluorobenzyl)-9-hydroxy-15,15-dimethyl-8-(4-(2-(8-(oxetan-3-yl)-3,8-diazabicyclo[3.2.1]octan-3-yl)pyrimidin-5-yl)benzyl)-3,6,13-trioxo-5-(1,1,1-trifluoro-2-methylpropan-2-yl)-2-oxa-4,7,11,12-tetraazahexadecan-14-yl)carbamate], the EC50 under setting [1] was found to be 2.78 nM.
